The numbers were not newly measured in patent US20230210769A1, “METHODS OF TREATMENT USING NICLOSAMIDE” (priority 2020, published 2023), which cites them from elsewhere.

Data set [1] has as its system SARS-CoV-2 (a.k.a. 2019-nCoV).
The subject of data set [2] is SARS-CoV, influenza virus, MERS-CoV, ZIKV, JEV, HCV, EBOV, HRVs, CHIKV, HAdV, EBV.

Take `O=C(Nc1ccc([N+](=O)[O-])cc1Cl)c1cc(Cl)ccc1O` [niclosamide, 5-chloro-N-(2-chloro-4-nitrophenyl)-2-hydroxybenzamide]: the “anti-viral effects against SARS-CoV-2” value in data set [1] was “anti-viral effects”. Further, the “anti-viral effects in vitro against various viral infections” value in data set [2] is on record as “anti-viral effects in vitro”.
